# Reference: patent US20180193294A1, “Dehydroabietic acid (DHAA) derivatives for use as ion channel openers” (priority 2015, published 2018)
# Target: 3R Shaker K channel (Drosophila melanogaster, UniProt P08510, A359R/M356R)
# Experiment: physchem
# Type: cell-based
# Details: Table 1; 100 μM, pH 7.4, Xenopus oocytes
# Text: A 3R Shaker K channel is a modified Shaker K channel where residues 356 and 359 are mutated to arginines.
# All animal experiments were approved by the local Animal Care and Use Committee and followed international guidelines. A modified Shaker H4 channel^30, with removed N-type inactivation (ShH4IR)^31, here called the wild type (WT) channel, was expressed in oocytes. In addition, a modified 3R Shaker K channel where two introduced positive charged arginines (M356R and A359R) in addition to one native arginine (R362) makes the channel more sensitive to DHA^16, was expressed in oocytes and in a CHO—K1 stable cell line.
# African clawed frogs (Xenopus laevis) were anesthetized with 1.4 g/L ethyl 3-aminobenzoate methanesulfonate salt (tricaine). After an incision through the abdomen a batch of oocytes were removed. Clusters of oocytes were separated by incubation for ˜1 h in a Ca-free O—R2 solution (in mM: 82.5 NaCl, 2 KCl, 5 HEPES, and 1 MgCl2; pH adjusted to 7.4 by NaOH) containing Liberase Blendzyme. The oocytes were then incubated at 8° C. in a modified Barth's solution (MBS; in mM: 88 NaCl, 1 KCl, 2.4 NaHCO3, 15 HEPES, 0.33 Ca(NO3)2, 0.41 CaCl2, and 0.82 MgSO4; pH adjusted to 7.6 by NaOH) supplemented with penicillin (25 U/ml), streptomycin (25 μg/ml), and sodium pyruvate (2.5 mM) 2-24 hours before injection. Fifty nl of cRNA (50 pg) were injected into each oocyte using a Nanoject injector (Drummond Scientific, Broomall, Pa.). Injected oocytes were kept at 8° C. in MBS until one day before electrophysiological recordings, when they were incubated at 16° C. All chemicals were supplied from Sigma-Aldrich (Stockholm, Sweden) if not stated otherwise.
# All manual electrophysiological recordings were performed at room temperature (20-23° C.), using a GeneClamp 500B amplifier (for oocytes) or a Axopatch 200B amplifier (for manual patch clamp of CHO—K1 cells and DRG neurons) and a Digidata 1440A digitizer and pClamp 10 software (all from Molecular Devices, Inc., Sunnyvale, Calif., USA). Compounds were dissolved to 100 mM in 99.5% EtOH and stored at −20° C. Compounds were diluted in extracellular solution to the desired test concentration.
# The oocyte was placed in a bath surrounded by 1K extracellular solution that contained (in mM): 88 NaCl, 1 KCl, 15 HEPES, 0.4 CaCl2, and 0.8 MgCl2, pH adjusted to 7.4 by NaOH (reaching a sodium concentration of ˜100 mM). Control solution was added to the bath with a gravity driven perfusion system. Compound solution was added to the bath manually with a syringe. Two glass microelectrodes were inserted into the oocyte using micromanipulators. […] All channels were closed when the potential was clamped to −80 mV and this voltage was set as the holding potential. Currents were evoked from the holding potential of −80 mV by 100-ms long, 5-mV steps ranging from −80 up to +50 mV (WT) and +70 mV (3R).
# Conductance GK(V) was calculated as GK(V)=[…], (Eq. 1) where IK is the average current from the steady-state phase at the end of each 100-ms pulse, V is the membrane voltage, and Vrev is the reversal potential for K^+, (set to −80 mV for the oocytes, and calculated to be −89 mV for the CHO—K1 cells).
# G(V)=A/(1+exp((V1/2−V)/s))^n (Eq. 2) where A is amplitude of the curve, V is the absolute membrane voltage, V1/2 is the midpoint, s is the slope and n is an exponent set to 4^17. The compound-induced G(V) shift was determined at the 10% level of the maximum conductance in control solution^17. The compound-induced G(V) shift in CHO—K1 was quantified by subtracting the control V1/2 from the compound V1/2 when n was set to 1.
# Data for concentration and pH dependent G(V) shifts (ΔV) in oocytes were fit with a dose-response equation ΔV=ΔVmax/(1+c1/2/c), (Eq. 3) where Δvmax is the maximal shift, c1/2 is half maximal effective concentration/pKa value and c is the concentration.
# Sequence of 3R Shaker K channel (P08510 whole entry M356R/A359R): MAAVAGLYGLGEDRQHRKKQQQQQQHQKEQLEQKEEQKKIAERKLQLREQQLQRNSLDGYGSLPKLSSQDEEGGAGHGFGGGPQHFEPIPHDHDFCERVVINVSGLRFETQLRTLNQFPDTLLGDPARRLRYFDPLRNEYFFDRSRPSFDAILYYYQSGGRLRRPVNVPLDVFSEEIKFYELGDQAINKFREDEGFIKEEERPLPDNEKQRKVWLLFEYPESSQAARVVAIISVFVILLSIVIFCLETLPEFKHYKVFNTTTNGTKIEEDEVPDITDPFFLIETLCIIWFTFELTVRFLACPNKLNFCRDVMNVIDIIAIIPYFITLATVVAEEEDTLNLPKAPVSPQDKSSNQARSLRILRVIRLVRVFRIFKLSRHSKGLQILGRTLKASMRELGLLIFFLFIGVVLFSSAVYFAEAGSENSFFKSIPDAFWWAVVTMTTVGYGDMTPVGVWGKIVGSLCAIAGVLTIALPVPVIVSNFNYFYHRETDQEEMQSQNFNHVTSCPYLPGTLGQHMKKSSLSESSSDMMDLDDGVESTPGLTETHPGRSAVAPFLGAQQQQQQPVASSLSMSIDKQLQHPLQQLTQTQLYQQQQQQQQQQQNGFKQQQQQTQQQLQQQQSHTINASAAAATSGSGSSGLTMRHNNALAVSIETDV
row,Structure (SMILES),G(V) shift [mV]
1,"C=CCO/N=C1\CC2[C@](C)(C(=O)O)CCC[C@]2(C)c2cc(F)c(C(C)C)cc21 (stereo partly drawn) [Wu52, (1R,4aS,E)-9-((allyloxy)imino)-6-fluoro-7-isopropyl-1,4a-dimethyl-1,2,3,4,4a,9,10,10a-octahydrophenanthrene-1-carboxylic acid]",−20.2
2,C=CCON=C1CC2C(C)(C(=O)O)CCCC2(C)c2ccc(C(C)C)c(F)c21 (stereo not shown) [Wu53],−9.2
3,CON=C1CC2C(C)(C(=O)O)CCCC2(C)c2ccc(C(C)C)c(F)c21 (stereo not shown) [Wu54],−9.0
4,"CO/N=C1\CC2[C@](C)(C(=O)O)CCC[C@]2(C)c2cc(F)c(C(C)C)cc21 (stereo partly drawn) [Wu55, (1R,4aS,E)-6-fluoro-7-isopropyl-9-(methoxyimino)-1,4a-dimethyl-1,2,3,4,4a,9,10,10a-octahydrophenanthrene-1-carboxylic acid]",−19.9
5,"CC(C)c1ccc2c(c1F)CC[C@H]1[C@](C)(C(=O)O)CCC[C@]21C [Wu56, (1R,4aS,10aR)-8-fluoro-7-isopropyl-1,4a-dimethyl-1,2,3,4,4a,9,10,10a-octahydrophenanthrene-1-carboxylic acid]",−6.6
6,"CC(C)c1cc2c(cc1I)[C@@]1(C)CCC[C@@](C)(C(=O)O)C1CC2 (stereo partly drawn) [Wu60, (1R,4aS,E)-6-iodo-7-isopropyl-1,4a-dimethyl-1,2,3,4,4a,9,10,10a-octahydrophenanthrene-1-carboxylic acid]",−9.0
7,"CC(C)c1ccc2c(c1I)CCC1[C@](C)(C(=O)O)CCC[C@]21C (stereo partly drawn) [Wu61, (1R,4aS,E)-8-iodo-7-isopropyl-1,4a-dimethyl-1,2,3,4,4a,9,10,10a-octahydrophenanthrene-1-carboxylic acid]",−18.3
8,"CC(C)c1cc2c(cc1I)[C@@]1(C)CCC[C@@](C)(C(=O)O)[C@@H]1CC2=O [Wu62, (1R,4aS,10aR)-6-iodo-7-isopropyl-9-oxo-1,4a-dimethyl-1,2,3,4,4a,9,10,10a-octahydrophenanthrene-1-carboxylic acid]",−13.7
9,"C=CCO/N=C1\CC2[C@](C)(C(=O)O)CCC[C@]2(C)c2cc(I)c(C(C)C)cc21 (stereo partly drawn) [Wu63, (1R,4aS,E)-9-((allyloxy)imino)-6-iodo-7-isopropyl-1,4a-dimethyl-1,2,3,4,4a,9,10,10a-octahydrophenanthrene-1-carboxylic acid]",−19.3
10,"CO/N=C1\CC2[C@](C)(C(=O)O)CCC[C@]2(C)c2cc(I)c(C(C)C)cc21 (stereo partly drawn) [Wu64, (1R,4aS,E)-6-iodo-7-isopropyl-9-(methoxyimino)-1,4a-dimethyl-1,2,3,4,4a,9,10,10a-octahydrophenanthrene-1-carboxylic acid]",−22.2
11,"CC(C)c1ccc2c(c1I)C(=O)C[C@H]1[C@](C)(C(=O)O)CCC[C@]21C [Wu68, (1R,4aS,10aR)-8-iodo-7-isopropyl-1,4a-dimethyl-9-oxo-1,2,3,4,4a,9,10,10a-octahydrophenanthrene-1-carboxylic acid]",−26.0
12,CC(C)c1ccc2c(c1Br)C(=O)CC1[C@](C)(C(=O)O)CCC[C@]21C (stereo partly shown) [Wu73],−5.8
13,C=CCON=C1CC2C(C)(C(=O)O)CCCC2(C)c2ccc(C(C)C)c(Br)c21 (stereo not shown) [Wu75],−8.6
14,C=Cc1c(C(C)C)ccc2c1CCC1[C@](C)(C(=O)O)CCC[C@]21C (stereo partly shown) [Wu76],−7.7
15,"C=Cc1cc2c(cc1C(C)C)CCC1[C@](C)(C(=O)O)CCC[C@]21C (stereo partly drawn) [Wu78, (1R,4aS)-7-isopropyl-1,4a-dimethyl-6-vinyl-1,2,3,4,4a,9,10,10a-octahydrophenanthrene-1-carboxylic acid]",−13.2
16,CC(C)c1cc2c(cc1C1CC1)[C@@]1(C)CCC[C@@](C)(C(=O)O)C1CC2 (stereo partly shown) [Wu81],−8.2
17,CC=Cc1cc2c(cc1C(C)C)CCC1[C@](C)(C(=O)O)CCC[C@]21C (stereo partly shown) [Wu84],−0.2

row,Structure (SMILES),G(V) shift [mV]
1,CC=Cc1c(C(C)C)ccc2c1CCC1[C@](C)(C(=O)O)CCC[C@]21C (stereo partly shown) [Wu85],−1.9
2,"CC(C)c1cc2c(cc1I)[C@@]1(C)CCC[C@@](C)(C(=O)O)C1C/C2=N\O (stereo partly drawn) [Wu86, (1R,4aS,E)-9-(hydroxyimino)-6-iodo-7-isopropyl-1,4a-dimethyl-1,2,3,4,4a,9,10,10a-octahydrophenanthrene-1-carboxylic acid]",−21.0
3,CC(C)c1cc2c(cc1I)C1(C)CCCC(C)(C(=O)O)C1CC2=NOCc1ccccc1 (stereo not shown) [Wu87],−6.0
4,CC(C)c1ccc2c(c1Br)C(=NO)CC1C(C)(C(=O)O)CCCC21C (stereo not shown) [Wu88],−5.6
5,CC(C)c1ccc2c(c1Br)C(=NOCc1ccccc1)CC1C(C)(C(=O)O)CCCC21C (stereo not shown) [Wu89],−5.2
6,CO/N=C1\C[C@H]2[C@](C)(C(=O)O)CCC[C@]2(C)c2ccc(C(C)C)c(I)c21 [Wu90],−19.2
7,"C=CCO/N=C1\C[C@H]2[C@](C)(C(=O)O)CCC[C@]2(C)c2ccc(C(C)C)c(I)c21 [Wu91, (1R,4aS,10aR)-9-((allyloxy)imino)-8-iodo-7-isopropyl-1,4a-dimethyl-1,2,3,4,4a,9,10,10a-octahydrophenanthrene-1-carboxylic acid]",−12.5
8,CC(C)c1cc(Cl)c2c(c1)CCC1C(C)(C(=O)O)CCCC21C (stereo not shown) [Wu100],−2.7
9,CC(C)c1cc(Cl)c2c(c1)C(O)CC1[C@](C)(C(=O)O)CCC[C@]21C (stereo partly shown) [Wu101],−9.6
10,CC(C)c1cc(Cl)c2c(c1)C(O)C[C@H]1[C@](C)(C(=O)O)CCC[C@]21C (stereo partly shown) [Wu102],−2.8
11,"C=CCO/N=C1\C[C@H]2[C@](C)(C(=O)O)CCC[C@]2(C)c2c(Cl)cc(C(C)C)cc21 [Wu104, (1R,4aS,10aR)-9-((allyloxy)imino)-5-chloro-7-isopropyl-1,4a-dimethyl-1,2,3,4,4a,9,10,10a-octahydrophenanthrene-1-carboxylic acid]",−12.9
12,"CO/N=C1\C[C@H]2[C@](C)(C(=O)O)CCC[C@]2(C)c2c(Cl)cc(C(C)C)cc21 [Wu105, (1R,4aS,10aR)-5-chloro-7-isopropyl-9-(methoxyimino)-1,4a-dimethyl-1,2,3,4,4a,9,10,10a-octahydrophenanthrene-1-carboxylic acid]",−23.2
13,CC(C)c1cc(Cl)c2c(c1O)CC[C@H]1[C@](C)(C(=O)O)CCC[C@]21C [Wu106],−3.4
14,"CC(C)c1cc2c(cc1F)[C@@]1(C)CCC[C@@](C)(C(=O)O)[C@@H]1CC2 [Wu108, (1R,4aS,10aR)-6-fluoro-7-isopropyl-1,4a-dimethyl-1,2,3,4,4a,9,10,10a-octahydrophenanthrene-1-carboxylic acid]",−10.4
15,CC(C)c1cc(Cl)c2c(c1Cl)CC[C@H]1[C@](C)(C(=O)O)CCC[C@]21C [Wu112],−14.7
16,CC(C)c1ccc2c(c1F)C(=O)C[C@H]1[C@](C)(C(=O)O)CCC[C@]21C [Wu113],−3.6
17,C=CCON=C1CC2C(C)(C(=O)O)CCCC2(C)c2c(Cl)cc(C(C)C)c(Cl)c21 (stereo not shown) [Wu114],−13.3
